Laboratory results reported in PubChem BioAssay AID248 (DTP/NCI, 2004).
Values joined by “and” are separate entries in the source; they are usually repeats but may differ in a detail not shown here. Equal values may be shown once. Inconclusive results and toxic doses are left out. No stated cut-off is given here; in the data, active means T/C of 150% or more; inactive means T/C below 125%.

Test system: L1210 leukemia ip in BDF1 mice, survival T/C
Test: NCI In Vivo Anticancer Drug Screen. Data for tumor model L1210 Leukemia (intraperitoneal) in B6D2F1 (BDF1) mice
Settings: endpoint: mean survival time, higher = longer survival
Method in brief: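 Transplanted-tumor mice were given test agent; controls received vehicle only. Survival readings from the two groups were divided (treated over control).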

[1] = dose: 50.0 mg/kg/injection, schedule: Q01DX009 (ip), vehicle: saline with Tween-80
[2] = dose: 100.0 mg/kg/injection, schedule: Q04DX003 (ip), vehicle: saline with Tween-80
[3] = dose: 200.0 mg/kg/injection, schedule: Q04DX003 (ip), vehicle: saline with Tween-80
[4] = dose: 400.0 mg/kg/injection, schedule: Q04DX003 (ip), vehicle: saline with Tween-80

Measured: T/C

CN(C)S(=O)(=O)c1ccc2c(c1)N(CCCN1CCN(S(C)(=O)=O)CC1)c1ccccc1S2
inactive: dose: 25.0 mg/kg/injection, schedule: Q01DX009 (ip), vehicle: saline 95 % of control | dose: 50.0 mg/kg/injection, schedule: Q01DX009 (ip), vehicle: saline 101 % of control | dose: 100.0 mg/kg/injection, schedule: Q01DX009 (ip), vehicle: saline 91 % of control | dose: 200.0 mg/kg/injection, schedule: Q01DX009 (ip), vehicle: saline 98 % of control | dose: 400.0 mg/kg/injection, schedule: Q01DX009 (ip), vehicle: saline 106 % of control

CC1NCc2c(N)nc(N)nc21 (centres undefined)
inactive: dose: 100.0 mg/kg/injection, schedule: Q01DX001 (ip), vehicle: carboxymethylcellulose (CMC) 98 % of control | dose: 200.0 mg/kg/injection, schedule: Q01DX001 (ip), vehicle: carboxymethylcellulose (CMC) 95 % of control | dose: 400.0 mg/kg/injection, schedule: Q01DX001 (ip), vehicle: carboxymethylcellulose (CMC) 98 % of control

CN(C)c1nc2ccccc2n1C1OC(CO)C(O)C1O (centres undefined)
inactive: dose: 100.0 mg/kg/injection, schedule: Q01DX001 (ip), vehicle: acetone 106 % of control | dose: 200.0 mg/kg/injection, schedule: Q01DX001 (ip), vehicle: acetone 103 % of control | dose: 400.0 mg/kg/injection, schedule: Q01DX001 (ip), vehicle: acetone 97 % of control

Cc1ccc(NC(=S)NC(=O)c2cccc([N+](=O)[O-])c2)cc1C
inactive: [1] 97 % of control and 112 % of control | dose: 100.0 mg/kg/injection, schedule: Q01DX001 (ip), vehicle: saline with Tween-80 92 % of control | dose: 100.0 mg/kg/injection, schedule: Q04DX002 (ip), vehicle: alcohol 93 % of control and 103 % of control | [2] 95 % of control | dose: 200.0 mg/kg/injection, schedule: Q01DX001 (ip), vehicle: saline with Tween-80 101 % of control | dose: 200.0 mg/kg/injection, schedule: Q04DX002 (ip), vehicle: alcohol 93 % of control and 103 % of control | [3] 94 % of control | dose: 400.0 mg/kg/injection, schedule: Q01DX001 (ip), vehicle: saline with Tween-80 98 % of control | dose: 400.0 mg/kg/injection, schedule: Q04DX002 (ip), vehicle: alcohol 93 % of control and 98 % of control | [4] 106 % of control

CCCCSCc1nc2nc(Cl)c(Cl)nc2[nH]1
inactive: [1] 96 % of control | dose: 100.0 mg/kg/injection, schedule: Q01DX009 (ip), vehicle: saline with Tween-80 98 % of control and 92 % of control | [2] 100 % of control | dose: 200.0 mg/kg/injection, schedule: Q01DX009 (ip), vehicle: saline with Tween-80 112 % of control | [3] 98 % of control | dose: 400.0 mg/kg/injection, schedule: Q01DX009 (ip), vehicle: saline with Tween-80 95 % of control and 96 % of control | [4] 98 % of control

O=C(CI)NCc1ccccc1
inactive: dose: 75.0 mg/kg/injection, schedule: Q01DX001 (ip), vehicle: saline 96 % of control
